Results on 4 compounds are retold here after patent US8377706B2, “Olfactory receptor-functionalized transistors for highly selective bioelectronic nose and biosensor using the same” (Seoul National University Industry Foundation, priority 2008, dated 2013).

In test [1] the target is T1, human olfactory receptor 2AG1 (hOR2AG1) protein (Homo sapiens, UniProt Q9H205).
T1 construct: made in house; host or cells: Escherichia coli
T1 sequence (Q9H205 1-316): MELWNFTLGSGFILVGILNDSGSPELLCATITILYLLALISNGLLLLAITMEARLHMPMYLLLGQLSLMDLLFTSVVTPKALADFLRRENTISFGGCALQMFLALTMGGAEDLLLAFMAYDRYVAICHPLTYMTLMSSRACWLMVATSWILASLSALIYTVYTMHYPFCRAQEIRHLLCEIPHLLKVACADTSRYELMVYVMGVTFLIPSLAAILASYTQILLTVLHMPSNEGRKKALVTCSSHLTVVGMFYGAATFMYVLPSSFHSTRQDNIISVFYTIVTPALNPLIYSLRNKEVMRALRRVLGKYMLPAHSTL
Briefly: Conductance (source-drain current) measurement of biosensor using hOR2AG1-functionalized swCNT transistors after introduction of odorants. The class given is biochemical. Conditions: for Detection Limit: lipid membranes with hOR2AG1 on swCNT-FET, odorant solution in PBS, bias 100 mV. The procedure: 1 μl of the hOR2AG1-containing fraction collected in Example 1 was evenly spread to cover the swCNTs and electrodes, and vacuum-dried for 4 hours to fix the hOR2AG1, thereby manufacturing human olfactory receptor-functionalized carbon nanotube transistors.
(§1) To measure the effects of odorants on the biosensor using human olfactory receptor functionalized transistors, drops of 9 μl phosphate buffered saline (PBS) were placed onto the human olfactory receptor functionalized transistors manufactured in […]. Subsequently, the source-drain current was monitored after the introduction of a solution containing specific odorants. A bias voltage of 100 mV was maintained at all time during the electrical measurement (See FIG. 8).
A 1 M stock solution of the odorants was prepared, and additional dilutions (from 10^−1 M to 10^−13 M) were obtained by serial 1:10 dilutions in PBS.
Butyl butyrate, phenyl valerate, and propyl butyrate were introduced at various concentrations on the biosensors using hOR2AG1 functionalized transistors manufactured in Example 2 of the present invention, each of the conductance modulations was measured, and the results were recorded in FIGS. 14 to 16, respectively. The arrows illustrated in FIGS. 14 to 16 show time points of introduction of each odorant.

Test [2] in a line: Control: conductance measurement on carbon nanotube transistors with lipid membranes in which hOR2AG1 was not included. Conditions: lipid membranes without olfactory receptors. The procedure:
as §1
(§2) The results are shown in FIGS. 12 and 13, respectively. As shown respectively in FIGS. 12 and 13, each of the conductance modulations was observed on the biosensors using modified carbon nanotube transistors with lipid membranes in which hOR2AG1 was not included and bare carbon nanotube transistors, after the introduction of amyl butyrate at 100 mM.

Test [3] can be described thus: Control: conductance measurement on bare carbon nanotube transistors. Particulars: bare CNT. The method, then: as §1, §2
In test [4] the target is T2, hOR2AG1 (Homo sapiens, UniProt Q9H205).
T2 sequence (Q9H205 1-316): T1 sequence (Q9H205 1-316)
Conditions: known; cited from earlier work.

Structures are written as SMILES.

As for `CCCCCOC(=O)CCCC` [Pentyl valerate (PV), pentyl valerate], the “Detection Limit” value in test [1] is 10 mM. The “Effect on biosensor conductance” value in test [1] (odorant at 100 μM (FIG. 11)) was “did not affect the biosensor”.

As to `CCCCCOC(=O)CCC` [Amyl butyrate (AB), amyl butyrate], the “Source-drain current after introduction of odorant” value in test [1] (100 fM, 1 pM, 10 pM and 100 pM (FIG. 10)) is given as “sharply decreased”. In addition, the entries for the “Detection Limit” value in test [1], in test [2] and in test [3] were 1e-10 mM, 100 mM and 100 mM, respectively. Also, the “Effect on biosensor conductance” value in test [1] (odorant at 1 pM (FIG. 11)) is reported as “sharply decreased”. In addition, the “Activation of hOR2AG1” value in test [4] is “activated”.

For `CCCCOC(=O)CCC` [Butyl butyrate (BB), butyl butyrate], the “Detection Limit” value in test [1] came to 10 mM. Besides, the “Effect on biosensor conductance” value in test [1] (odorant at 100 μM (FIG. 11)) was “did not affect the biosensor”.

As to `CCCOC(=O)CCC` [Propyl butyrate (PB), propyl butyrate], in test [1], the “Detection Limit” value turned out to be 10 mM. The “Effect on biosensor conductance” value in test [1] (odorant at 100 μM (FIG. 11)) was “did not affect the biosensor”.
